# Measurements: paper PMC3008316 (Antiviral research, 2009)
# Like-named read-outs stand apart in the source and are kept apart here. Marks after values point to notes of the source that are not given here.
# Tests used:
# [1] = test system: Sandfly fever virus, Naples strain (SFNV)
# PTV, Adames strain [2] = test system: PTV, Adames strain; parameters: species or system C57BL/6 mice; conditions: mouse, in vivo
# [3] = test system: Junin virus (JUNV) vaccine strain Candid 1
# [4] = test system: RVFV vaccine strain MP-12
# PICV, strain An 4763 [5] = format: in vivo, Syrian hamsters
# [6] = test system: Sandfly fever virus, Naples strain (SFNV); test: microbe, parasite or virus in culture; conditions: sandfly fever Sicilian virus, Vero 76, read-out: EC50 ± SD (CPER)
# [7] = test system: Sandfly fever virus, Naples strain (SFNV); remark: listed apart in the source
# PTV, Adames strain [8] = test system: PTV, Adames strain
# PTV, Adames strain [9] = test system: PTV, Adames strain; remark: listed apart in the source
# PICV, strain An 4763 [10] = test system: PICV, strain An 4763
# [11] = test system: Junin virus (JUNV) vaccine strain Candid 1; test: microbe, parasite or virus in culture; conditions: Mammarenavirus juninense, Vero, read-out: EC50 ± SD (CPER)
# [12] = test system: phleboviruses (RVFV, PTV, SFNV); test: organism not typed; format: cell-based
# [13] = test system: Tacaribe virus (TCRV), strain TRVL 11573
# [14] = test system: RVFV vaccine strain MP-12; test: microbe, parasite or virus in culture; conditions: Rift Valley fever virus, Vero 76, read-out: EC90 ± SD (VYR)
# in vitro [15] = conditions: monkey, CC50 ± SD
# [16] = test system: RVFV vaccine strain MP-12; test: microbe, parasite or virus in culture; conditions: Rift Valley fever virus, Vero 76, read-out: EC50 ± SD (CPER)
# [17] = test system: Tacaribe virus (TCRV), strain TRVL 11573; test: microbe, parasite or virus in culture; conditions: Mammarenavirus tacaribeense, Vero 76, read-out: EC50 ± SD (CPER)
# PICV, strain An 4763 [18] = test system: PICV, strain An 4763; remark: listed apart in the source
# [19] = test system: Tacaribe virus (TCRV), strain TRVL 11573; test: microbe, parasite or virus in culture; conditions: Mammarenavirus tacaribeense, Vero 76, read-out: EC90 ± SD (VYR)
# PTV, Adames strain [20] = test: microbe, parasite or virus in culture; conditions: Punta Toro virus, Vero 76, read-out: EC90 ± SD (VYR)
# PTV, Adames strain [21] = test: microbe, parasite or virus in culture; conditions: Punta Toro virus, Vero 76, read-out: EC50 ± SD (CPER)
# [22] = test system: Tacaribe virus (TCRV), strain TRVL 11573; remark: listed apart in the source
# PICV, strain An 4763 [23] = test: microbe, parasite or virus in culture; conditions: Pichinde virus, Vero, read-out: EC90 ± SD (VYR)
# [24] = test system: RVFV vaccine strain MP-12; remark: listed apart in the source
# PTV, Adames strain [25] = test system: PTV, Adames strain; parameters: species or system Syrian hamsters; conditions: hamster, in vivo
# [26] = test system: Junin virus (JUNV) vaccine strain Candid 1; test: microbe, parasite or virus in culture; conditions: Mammarenavirus juninense, Vero, read-out: EC90 ± SD (VYR)
# [27] = test system: Junin virus (JUNV) vaccine strain Candid 1; remark: listed apart in the source
# in vitro [28] = conditions: monkey, CC50 ± SD; remark: listed apart in the source
# PICV, strain An 4763 [29] = test: microbe, parasite or virus in culture; conditions: Pichinde virus, Vero, read-out: EC50 ± SD (CPER)
# Vero cells = conditions: monkey
# [30] = test system: Sandfly fever virus, Naples strain (SFNV); test: microbe, parasite or virus in culture; conditions: sandfly fever Sicilian virus, Vero 76, read-out: EC90 ± SD (VYR)
# [31] = hamster, in vivo, po, 25 mg/kg/day
# [32] = hamster, in vivo, po, 50 mg/kg/day
# [33] = hamster, in vivo, po, 100 mg/kg/day
structure (smiles),measurement,setting,value
"NC(=O)c1nc(F)cnc1O [T-705, 6-fluoro-3-hydroxy-2-pyrazinecarboxamide]",SI (CC50/EC90),[1],1952
same,ED50 (survival),"PTV, Adames strain [2]",159 µmol/kg/day
same,SI (CC50/EC90),[3],>387
same,SI (CC50/EC90),[4],>530
same,Potency relative to T-1106 based on ALT molar dose response,"PICV, strain An 4763 [5]; hamster, in vivo",2.6 fold
same,Potency relative to T-1106 based on ED50,"PICV, strain An 4763 [5]; hamster, in vivo",6.1 times
same,Survival compared to placebo,"PICV, strain An 4763 [5]; hamster, in vivo",significantly protected
same,ED50 (survival),"PICV, strain An 4763 [5]; hamster, in vivo, po",72 µmol/kg/day
same,ALT ± SD,"PICV, strain An 4763 [5]; [31]",859 ± 782 international units per liter
same,"Mean virus titer ± SD, liver","PICV, strain An 4763 [5]; [31]",7.6 ± 0.8 (100)
same,"Mean virus titer ± SD, serum","PICV, strain An 4763 [5]; [31]",6.6 ± 1.0 (100)
same,"Percentage of animals with detectable virus, liver","PICV, strain An 4763 [5]; [31]",7.6 ± 0.8 (100) %
same,"Percentage of animals with detectable virus, serum","PICV, strain An 4763 [5]; [31]",6.6 ± 1.0 (100) %
same,"Mean virus titer ± SD, liver","PICV, strain An 4763 [5]; [32]",5.8 ± 1.1 (100)
same,"Mean virus titer ± SD, serum","PICV, strain An 4763 [5]; [32]",< 3.8 ± 1.6 (80)
same,"Percentage of animals with detectable virus, liver","PICV, strain An 4763 [5]; [32]",5.8 ± 1.1 (100) %
same,"Percentage of animals with detectable virus, serum","PICV, strain An 4763 [5]; [32]",< 3.8 ± 1.6 (80) %
same,"Mean virus titer ± SD, liver","PICV, strain An 4763 [5]; [33]",< 3.3 ± 0.5 (60)
same,"Mean virus titer ± SD, serum","PICV, strain An 4763 [5]; [33]",< 1.8 (0) ^**
same,"Percentage of animals with detectable virus, liver","PICV, strain An 4763 [5]; [33]",< 3.3 ± 0.5 (60) %
same,"Percentage of animals with detectable virus, serum","PICV, strain An 4763 [5]; [33]",< 1.8 (0) ^** %
same,Survival outcome,"PICV, strain An 4763 [5]; n=10",complete protection
same,Animals protected (survival),"PICV, strain An 4763 [5]; n=10, 25 mg/kg/day",70%
same,Animals protected (survival),"PICV, strain An 4763 [5]; n=10, 50 mg/kg/day",80%
same,EC50,[6],30 ± 15 µM
same,SI (CC50/EC50),[7],195
same,SI (CC50/EC50),"PTV, Adames strain [8]",>68
same,SI (CC50/EC90),"PTV, Adames strain [9]",>197
same,SI (CC50/EC50),"PICV, strain An 4763 [10]",194
same,EC50,[11],19 ± 5 µM
same,"Inhibitory concentrations, range",[12],3 to 55 µM
same,EC50,"[12]; read-out: EC50 values, range (CPE reduction assay)",27 to 55 µM
same,EC90,"[12]; read-out: EC90 values, range (VYR)",3 to 19 µM
same,SI (CC50/EC90),[13],>405
same,EC90,[14],12 ± 4 µM
same,CC50,in vitro [15],> 5410 µM
same,EC50,[16],27 ± 5 µM
same,EC50,[17],26 ± 13 µM
same,SI (CC50/EC90),"PICV, strain An 4763 [18]",202
same,EC90,[19],12 ± 4 µM
same,EC90,"PTV, Adames strain [20]",19 ± 11 µM
same,EC50,"PTV, Adames strain [21]",55 ± 35 µM
same,SI (CC50/EC50),[22],>187
same,EC90,"PICV, strain An 4763 [23]",24 ± 5 µM
same,SI (CC50/EC50),[24],>236
same,ED50 (survival),"PTV, Adames strain [25]",112 µmol/kg/day
same,"Mean virus titer ± SD, liver","PTV, Adames strain [25]",< 3.9 ± 1.5 (40)
same,Survival compared to placebo,"PTV, Adames strain [25]",significant protection
same,ALT ± SD,"PTV, Adames strain [25]; po, 25 mg/kg/day",820 ± 1148 international units per liter
same,"Mean virus titer ± SD, liver","PTV, Adames strain [25]; po, 25 mg/kg/day",< 5.9 ± 1.8 (80)
same,"Mean virus titer ± SD, serum","PTV, Adames strain [25]; po, 25 mg/kg/day",< 5.4 ± 3.4 (60)
same,"Percentage of animals with detectable virus, liver","PTV, Adames strain [25]; po, 25 mg/kg/day",< 5.9 ± 1.8 (80) %
same,"Percentage of animals with detectable virus, serum","PTV, Adames strain [25]; po, 25 mg/kg/day",< 5.4 ± 3.4 (60) %
same,ALT ± SD,"PTV, Adames strain [25]; po, 50 mg/kg/day",52 ± 79 international units per liter
same,"Mean virus titer ± SD, liver","PTV, Adames strain [25]; po, 50 mg/kg/day",< 3.6 ± 1.7 (40)
same,"Percentage of animals with detectable virus, liver","PTV, Adames strain [25]; po, 50 mg/kg/day",< 3.6 ± 1.7 (40) %
same,ALT ± SD,"PTV, Adames strain [25]; po, 100 mg/kg/day",38 ± 19 international units per liter
same,"Mean virus titer ± SD, serum","PTV, Adames strain [25]; po, 100 mg/kg/day",< 3.1 ± 1.9 (40)
same,"Percentage of animals with detectable virus, liver","PTV, Adames strain [25]; po, 100 mg/kg/day",< 3.9 ± 1.5 (40) %
same,"Percentage of animals with detectable virus, serum","PTV, Adames strain [25]; po, 100 mg/kg/day",< 3.1 ± 1.9 (40) %
same,EC90,[26],14 ± 3 µM
same,SI (CC50/EC50),[27],>285
same,CC50,in vitro [28],> 6360 µM
same,EC50,"PICV, strain An 4763 [29]",25 ± 6 µM
same,CC50,Vero cells,4860 ± 409 µM
same,EC90,[30],3 ± 1 µM
